According to ChEMBL document CHEMBL1201862, “PubChem BioAssay data set” (2004):
Activity calls are given as the source filed them.

Legend:
[1] = molecular target: T1, Low molecular weight phosphotyrosine protein phosphatase (Homo sapiens, UniProt P24666); type: functional; conditions: read-out: IC50_Mean
T1 sequence (P24666 whole entry): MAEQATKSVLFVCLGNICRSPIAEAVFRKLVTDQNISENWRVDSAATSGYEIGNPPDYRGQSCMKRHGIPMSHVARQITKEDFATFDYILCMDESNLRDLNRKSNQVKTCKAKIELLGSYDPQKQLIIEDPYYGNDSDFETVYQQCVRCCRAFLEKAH

[2] = molecular target: T1, Low molecular weight phosphotyrosine protein phosphatase; type: functional; conditions: read-out: IC50_Mean; remark: listed apart in the source
cells = type: functional, cell-based; conditions: HEK-CNG
[3] = inhibitors of intracellular T. cruzi replication, confirmation, NIH3T3 host cells, beta-gal luminescence (AID 2044); type: functional, cell-based;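 also: intracellular parasites grown in NIH/3T3 mouse fibroblasts as host cells; luminescent beta-galactosidase reporter signal from transgenic T. cruzi replicating inside host cells; inhibitors lower the luminescence signal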
[4] = molecular target: DNA dC->dU-editing enzyme APOBEC-3G (Homo sapiens, UniProt Q9HC16); type: functional;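 also: Dose-response counterscreen measuring inhibition of APOBEC3G DNA deaminase activity, run while confirming APOBEC3A inhibitors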
Galanin receptor type 3 = Galanin receptor type 3 (Homo sapiens, UniProt O60755); assay: Fluorescence-based cell-based primary high throughput dose response assay to identify antagonists of the Galanin Receptor 3 (GalR3).; type: functional
Galanin receptor type 3, sequence (O60755 whole entry): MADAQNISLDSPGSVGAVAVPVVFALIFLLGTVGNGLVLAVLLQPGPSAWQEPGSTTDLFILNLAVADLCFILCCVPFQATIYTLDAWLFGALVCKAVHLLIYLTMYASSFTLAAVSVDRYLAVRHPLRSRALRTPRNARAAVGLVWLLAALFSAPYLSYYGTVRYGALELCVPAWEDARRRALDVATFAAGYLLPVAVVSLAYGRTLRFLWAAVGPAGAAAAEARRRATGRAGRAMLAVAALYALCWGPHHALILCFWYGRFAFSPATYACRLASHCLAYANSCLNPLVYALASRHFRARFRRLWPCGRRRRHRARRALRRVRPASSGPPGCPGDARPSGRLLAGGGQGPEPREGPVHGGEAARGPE

[5] = molecular target: DNA dC->dU-editing enzyme APOBEC-3A (Homo sapiens, UniProt P31941); assay: Dose Response confirmation of small molecule APOBEC3A DNA Deaminase Inhibitors via a fluorescence-based single-stranded DNA deaminase assay. [Related pubchem assays (depositor defined):AID493011, AID493024]; type: functional
DNA dC->dU-editing enzyme APOBEC-3A, sequence (P31941 whole entry): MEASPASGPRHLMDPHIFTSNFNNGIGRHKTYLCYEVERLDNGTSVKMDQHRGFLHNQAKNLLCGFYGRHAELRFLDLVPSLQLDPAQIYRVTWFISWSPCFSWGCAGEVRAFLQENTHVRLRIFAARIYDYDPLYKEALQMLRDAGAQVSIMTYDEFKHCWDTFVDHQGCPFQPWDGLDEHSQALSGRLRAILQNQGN

[6] = cytotoxicity toward NIH3T3 fibroblasts, dose response, counter-screen, cell-based, ATP luminescence, mouse fibroblasts (AID 2010); type: functional;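 also: cells exposed to compound for about 90 hours before reading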
Steroidogenic factor 1 = Steroidogenic factor 1 (Homo sapiens, UniProt Q13285); assay: Counterscreen for inverse agonists of the liver receptor homolog-1 (LRH-1; NR5A2): Luminescence-based cell-based high throughput dose response assay to identify inverse agonists of the Steroidogenic Factor 1 Nuclear Receptor (SF1; NR5A1).; type: functional
[7] = molecular target: T2, Heat shock factor protein 1 (Mus musculus, UniProt P38532); assay: inhibition of MG132-induced HSE-luciferase signal, confirmation, cell-based, NIH3T3, luminescence, dose retest (AID 2382); type: functional;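 also: NIH3T3 fibroblasts with HSF1-driven luciferase reporter stressed by proteasome inhibitor MG132; luminescence from HSF1-driven luciferase expression after 8 hours of MG132 stress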
T2 sequence (P38532 whole entry): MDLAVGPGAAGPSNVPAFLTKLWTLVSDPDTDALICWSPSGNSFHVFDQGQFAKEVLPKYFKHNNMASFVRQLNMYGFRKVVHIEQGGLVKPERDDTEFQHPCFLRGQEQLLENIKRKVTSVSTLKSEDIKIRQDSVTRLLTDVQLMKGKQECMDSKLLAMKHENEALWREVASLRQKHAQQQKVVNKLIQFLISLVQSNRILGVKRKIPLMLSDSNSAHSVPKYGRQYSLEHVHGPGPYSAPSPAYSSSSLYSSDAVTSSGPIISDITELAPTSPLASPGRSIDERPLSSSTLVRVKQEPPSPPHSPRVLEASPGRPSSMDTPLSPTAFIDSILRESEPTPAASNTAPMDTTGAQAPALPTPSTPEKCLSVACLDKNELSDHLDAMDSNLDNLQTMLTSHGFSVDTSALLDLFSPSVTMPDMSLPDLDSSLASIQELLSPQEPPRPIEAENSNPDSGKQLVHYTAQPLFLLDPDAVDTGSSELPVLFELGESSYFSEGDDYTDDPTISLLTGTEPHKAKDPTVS

[8] = StAR promoter reporter inhibition counter-screen, dose response, counter-screen for LRH-1 inverse agonist project, cell-based, luminescence, luciferase reporter (AID 651969); type: functional
[9] = molecular target: Nuclear receptor subfamily 5 group A member 2 (Homo sapiens, UniProt O00482); type: functional, cell-based;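 also: HEK293T cells transfected with LRH-1 and a StAR promoter luciferase reporter; potency for inhibitors that lower LRH-1 driven reporter light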
[10] = molecular target: Long-chain-fatty-acid--AMP ligase FadD28 (Mycobacterium tuberculosis, UniProt P9WQ59); assay: Fluorescence polarization aasay to screen for inhibitors that compete for the binding of FadD28 to a bisubstrate Measured in Biochemical System Using Plate Reader - 2147-01_Inhibitor_Dose_CherryPick_Activity.; type: functional, Mycobacterium tuberculosis H37Rv
Long-chain-fatty-acid--AMP ligase FadD28, sequence (P9WQ59 whole entry, the tested form may be a part): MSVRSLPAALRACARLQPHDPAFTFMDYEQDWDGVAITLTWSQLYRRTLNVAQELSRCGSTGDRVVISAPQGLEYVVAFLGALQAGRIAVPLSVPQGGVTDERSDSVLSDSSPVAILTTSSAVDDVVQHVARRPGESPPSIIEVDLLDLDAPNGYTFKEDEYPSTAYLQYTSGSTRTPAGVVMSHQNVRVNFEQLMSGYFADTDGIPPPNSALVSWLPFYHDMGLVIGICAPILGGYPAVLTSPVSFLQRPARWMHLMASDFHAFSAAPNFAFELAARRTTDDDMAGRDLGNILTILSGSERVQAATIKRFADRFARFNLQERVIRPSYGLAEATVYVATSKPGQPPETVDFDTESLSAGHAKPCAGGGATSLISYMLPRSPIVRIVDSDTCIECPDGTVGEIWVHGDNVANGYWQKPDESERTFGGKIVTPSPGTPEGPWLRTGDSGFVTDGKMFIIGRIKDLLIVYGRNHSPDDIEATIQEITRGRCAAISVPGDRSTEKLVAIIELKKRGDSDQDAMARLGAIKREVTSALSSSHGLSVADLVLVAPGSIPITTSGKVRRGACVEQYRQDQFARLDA

[11] = molecular target: T3, Carboxy-terminal domain RNA polymerase II polypeptide A small phosphatase 1 (Homo sapiens, UniProt Q9GZU7); assay: inhibitors of CTDSP1, concentration-response testing, biochemical assay, absorbance-based, actives from ultra-high-throughput screening (AID 540297); type: functional
T3 sequence (Q9GZU7 whole entry): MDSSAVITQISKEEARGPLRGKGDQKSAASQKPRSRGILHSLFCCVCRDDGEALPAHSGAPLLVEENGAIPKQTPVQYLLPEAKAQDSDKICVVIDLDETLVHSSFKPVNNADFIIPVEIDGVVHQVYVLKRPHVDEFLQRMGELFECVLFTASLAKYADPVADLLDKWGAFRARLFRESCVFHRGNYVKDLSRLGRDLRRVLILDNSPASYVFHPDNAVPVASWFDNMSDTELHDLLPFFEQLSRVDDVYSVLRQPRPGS

[12] = CEM21 lymphoblast cell cytotoxicity, dose response, cytotoxicity control for viral fusion inhibitor project, CellTiter-Glo luminescence, cherry-picked (AID 652042); type: functional, cell-based;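 also: potency for signal decrease meaning cytotoxicity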
[13] = inhibitors of HIV Env-driven cell fusion, dose response, cherry-pick (AID 652057); type: functional, cell-based
[14] = A549 cell cytotoxicity, dose response, cytotoxicity control, plate reader, cherry-pick, antagonist series (AID 743412); type: functional, cell-based
[15] = MC4R antagonists, dose response, counter-screen for LGR2 antagonist project, cell-based, plate reader, cherry pick (AID 743444); type: functional;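 also: transfected HEK 293 cells stimulated with alpha-MSH peptide; potency of inhibitors of the alpha-MSH evoked signal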
[16] = HepG2 cell cytotoxicity, dose response, cytotoxicity control, plate reader, cherry-pick, antagonist series (AID 743416); type: functional, cell-based
[17] = LGR2 antagonists, dose response, cell-based, HEK293, CRE-luciferase reporter, cherry pick, set 2 (AID 743343); type: functional;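 also: transfected cells were stimulated with diluted bursicon conditioned medium after compound addition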
[18] = molecular target: Endoplasmic reticulum aminopeptidase 1 (Homo sapiens, UniProt Q9NZ08); assay: ERAP1 aminopeptidase inhibitors, dose response, biochemical, cherry-pick, set 2, plate reader (AID 743314)
[19] = molecular target: Peroxisome proliferator-activated receptor gamma/Nuclear receptor coactivator 1 (Homo sapiens, UniProt P37231); assay: TR-FRET dose response biochemical High Throughput Screening assay for agonists of the steroid receptor coactivator 1 (SRC-1) recruitment by the peroxisome proliferator-activated receptor gamma (PPAR gamma): non-selective agonists. [Related pubchem assays (depositor defined):AID1300, AID1808, AID504735, AID631]; type: protein assay
[20] = molecular target: Peroxisome proliferator-activated receptor gamma/Nuclear receptor coactivator 2 (Homo sapiens, UniProt P37231); assay: (§1) TR-FRET dose response biochemical High Throughput Screening assay for agonists of the steroid receptor coactivator 2 (SRC-2) recruitment by the peroxisome proliferator-activated receptor gamma (PPAR gamma): non-selective agonists. [Related pubchem assays: 1297, 1032 ]; type: functional
Peroxisome proliferator-activated receptor gamma/Nuclear receptor coactivator 2, sequence (P37231 whole entry): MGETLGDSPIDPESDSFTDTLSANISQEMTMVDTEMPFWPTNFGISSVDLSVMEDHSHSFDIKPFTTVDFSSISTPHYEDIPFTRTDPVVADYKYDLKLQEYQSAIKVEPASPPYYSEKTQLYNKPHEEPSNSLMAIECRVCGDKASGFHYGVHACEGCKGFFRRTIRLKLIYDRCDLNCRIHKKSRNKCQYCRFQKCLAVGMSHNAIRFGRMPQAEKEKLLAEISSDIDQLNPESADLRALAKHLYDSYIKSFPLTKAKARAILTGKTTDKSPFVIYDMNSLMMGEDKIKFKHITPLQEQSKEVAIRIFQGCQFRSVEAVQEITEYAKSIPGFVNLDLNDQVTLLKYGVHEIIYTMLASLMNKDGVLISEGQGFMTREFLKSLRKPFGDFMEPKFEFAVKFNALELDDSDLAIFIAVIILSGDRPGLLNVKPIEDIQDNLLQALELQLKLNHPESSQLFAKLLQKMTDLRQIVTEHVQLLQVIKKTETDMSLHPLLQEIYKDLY
Peroxisome proliferator-activated receptor gamma/Nuclear receptor coactivator 2, sequence (Q15596 whole entry, further chain): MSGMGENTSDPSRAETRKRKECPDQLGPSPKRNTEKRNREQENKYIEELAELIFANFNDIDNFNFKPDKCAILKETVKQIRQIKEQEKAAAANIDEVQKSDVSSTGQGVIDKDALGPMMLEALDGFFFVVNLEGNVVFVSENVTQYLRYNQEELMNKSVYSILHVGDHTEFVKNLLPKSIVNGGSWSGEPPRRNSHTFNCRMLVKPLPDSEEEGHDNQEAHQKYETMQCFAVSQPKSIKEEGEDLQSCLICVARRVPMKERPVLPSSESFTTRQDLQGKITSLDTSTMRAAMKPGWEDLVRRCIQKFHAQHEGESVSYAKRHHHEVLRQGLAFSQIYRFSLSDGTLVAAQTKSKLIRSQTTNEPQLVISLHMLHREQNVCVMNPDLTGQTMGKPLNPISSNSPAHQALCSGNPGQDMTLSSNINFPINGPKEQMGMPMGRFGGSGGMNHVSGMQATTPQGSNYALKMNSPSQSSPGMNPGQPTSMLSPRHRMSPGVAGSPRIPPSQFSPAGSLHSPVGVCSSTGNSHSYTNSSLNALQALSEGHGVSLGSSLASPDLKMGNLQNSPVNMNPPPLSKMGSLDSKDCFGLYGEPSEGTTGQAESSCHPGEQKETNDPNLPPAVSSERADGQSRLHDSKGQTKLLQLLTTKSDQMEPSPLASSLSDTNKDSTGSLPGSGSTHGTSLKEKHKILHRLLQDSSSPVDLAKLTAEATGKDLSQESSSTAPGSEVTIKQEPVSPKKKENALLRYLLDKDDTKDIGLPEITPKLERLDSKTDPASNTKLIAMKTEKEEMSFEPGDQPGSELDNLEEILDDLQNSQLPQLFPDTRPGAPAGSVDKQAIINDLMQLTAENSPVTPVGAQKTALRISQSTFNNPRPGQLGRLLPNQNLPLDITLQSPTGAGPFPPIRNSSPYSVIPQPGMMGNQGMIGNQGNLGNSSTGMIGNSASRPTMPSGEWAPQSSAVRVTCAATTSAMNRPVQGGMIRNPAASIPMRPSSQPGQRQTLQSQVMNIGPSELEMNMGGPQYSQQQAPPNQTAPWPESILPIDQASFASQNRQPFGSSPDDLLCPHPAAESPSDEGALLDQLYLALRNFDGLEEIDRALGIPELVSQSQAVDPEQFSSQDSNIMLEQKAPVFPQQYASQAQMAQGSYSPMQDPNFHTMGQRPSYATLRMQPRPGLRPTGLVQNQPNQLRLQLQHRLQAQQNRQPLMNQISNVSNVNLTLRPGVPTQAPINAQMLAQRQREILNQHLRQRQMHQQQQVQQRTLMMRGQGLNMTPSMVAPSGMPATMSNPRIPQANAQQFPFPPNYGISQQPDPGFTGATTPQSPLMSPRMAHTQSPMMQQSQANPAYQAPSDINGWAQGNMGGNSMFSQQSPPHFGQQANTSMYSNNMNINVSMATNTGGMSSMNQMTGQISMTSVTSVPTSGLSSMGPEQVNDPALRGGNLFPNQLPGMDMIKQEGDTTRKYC

[21] = molecular target: Peroxisome proliferator-activated receptor gamma/Nuclear receptor coactivator 3 (Homo sapiens, UniProt P37231); assay: as §1, with “3 (SRC-3)” for “2 (SRC-2)”, “1301 (Confirmation screen.), 1048 (Primary screen.)]” for “1297, 1032 ]”; type: functional
Peroxisome proliferator-activated receptor gamma/Nuclear receptor coactivator 3, sequence (P37231 whole entry): as the sequence (P37231 whole entry) above
Peroxisome proliferator-activated receptor gamma/Nuclear receptor coactivator 3, sequence (Q9Y6Q9 whole entry, further chain): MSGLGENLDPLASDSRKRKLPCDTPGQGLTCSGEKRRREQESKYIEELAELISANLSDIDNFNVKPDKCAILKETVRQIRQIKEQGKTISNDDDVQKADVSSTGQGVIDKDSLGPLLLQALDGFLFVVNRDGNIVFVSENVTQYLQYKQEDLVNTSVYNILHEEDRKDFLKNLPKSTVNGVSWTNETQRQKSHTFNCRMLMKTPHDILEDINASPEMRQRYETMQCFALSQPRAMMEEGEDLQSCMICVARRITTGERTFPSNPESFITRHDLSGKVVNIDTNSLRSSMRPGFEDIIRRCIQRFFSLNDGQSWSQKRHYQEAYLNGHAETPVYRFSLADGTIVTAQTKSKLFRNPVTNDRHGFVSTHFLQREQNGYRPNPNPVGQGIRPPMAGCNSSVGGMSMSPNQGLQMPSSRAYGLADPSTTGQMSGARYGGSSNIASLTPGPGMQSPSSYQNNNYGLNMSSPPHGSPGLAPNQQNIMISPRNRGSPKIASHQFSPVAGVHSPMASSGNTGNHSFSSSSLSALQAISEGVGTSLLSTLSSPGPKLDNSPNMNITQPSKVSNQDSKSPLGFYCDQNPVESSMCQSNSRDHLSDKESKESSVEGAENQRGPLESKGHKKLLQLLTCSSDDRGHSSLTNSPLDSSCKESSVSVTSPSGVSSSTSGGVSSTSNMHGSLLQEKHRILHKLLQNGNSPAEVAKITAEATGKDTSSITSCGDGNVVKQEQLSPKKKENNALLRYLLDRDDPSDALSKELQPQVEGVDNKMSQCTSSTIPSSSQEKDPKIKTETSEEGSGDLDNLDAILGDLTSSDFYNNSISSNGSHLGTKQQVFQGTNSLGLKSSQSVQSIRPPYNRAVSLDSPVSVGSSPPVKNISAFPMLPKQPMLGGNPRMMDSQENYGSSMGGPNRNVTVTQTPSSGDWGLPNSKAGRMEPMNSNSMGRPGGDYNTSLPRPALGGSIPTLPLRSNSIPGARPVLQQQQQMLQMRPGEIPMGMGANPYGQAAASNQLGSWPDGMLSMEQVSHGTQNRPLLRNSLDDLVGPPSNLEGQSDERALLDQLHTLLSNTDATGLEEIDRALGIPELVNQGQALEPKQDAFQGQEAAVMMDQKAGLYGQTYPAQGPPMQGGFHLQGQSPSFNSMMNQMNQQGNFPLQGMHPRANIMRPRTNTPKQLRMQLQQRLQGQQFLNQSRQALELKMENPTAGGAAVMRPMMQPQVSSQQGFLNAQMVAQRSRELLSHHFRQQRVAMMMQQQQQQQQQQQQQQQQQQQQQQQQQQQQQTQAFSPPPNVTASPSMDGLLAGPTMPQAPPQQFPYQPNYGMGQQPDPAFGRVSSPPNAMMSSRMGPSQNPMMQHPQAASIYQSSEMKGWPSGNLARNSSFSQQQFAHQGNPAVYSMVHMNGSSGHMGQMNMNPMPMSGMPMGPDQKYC

Compound: CC(/C=N/NC(=O)c1ccc(Br)cc1)=C\c1ccccc1
- IC50 [1]: 28.5 µM (inactive)
- IC50 [2]: 17.2 µM (active)

Compound: CC1(C)CC(N2CCCCC2)=CC(=[N+]2CCCCC2)C1
- EC50 (cells): > 29.9 µM (inactive)
- EC50 [3]: 0.369 µM (active)
- IC50 [4]: 4.57 µM (active)
- IC50 (Galanin receptor type 3): 3.67 µM (active)
- IC50 [5]: 2.2 µM (active)
- EC50 [6]: 21.5 µM (active)

Compound: Cc1c(Cl)cccc1NC(=O)CS(=O)(=O)c1ccccc1
- IC50 (Steroidogenic factor 1): 9.39 µM (active)
- EC50 [7]: > 195 µM (not active)
- IC50 [8]: 35.8 µM (inactive)
- IC50 [9]: 3.98 µM (active)

Compound: O=C(NCCSCc1ccc(Cl)cc1Cl)c1ccc(CN2CCOCC2)cc1
- AC50 [10]: 15.7 µM (active)

Compound: CCc1ccc(NC(=O)C[S+]([O-])CC(=O)Nc2ccc(N3CCOCC3)cc2)cc1 (stereo not drawn)
- IC50 [1]: 16.8 µM (active)
- IC50 [2]: 17.4 µM (active)
- IC50 [11]: 5.78 µM (active)

Compound: COCCCNC(=O)c1sc2ncnc(N3CCc4ccccc4C3)c2c1C
- AC50 [12]: 6.66 µM (active)
- AC50 [13]: 3.98 µM (active)

Compound: COc1ccc2oc(-c3ccccc3)cc(=O)c2c1 [6-METHOXYFLAVONE]
- AC50 [14]: > 52 µM (inactive)
- AC50 [15]: 6.5 µM (active)
- AC50 [16]: > 52 µM (inactive)
- AC50 [17]: 5.46 µM (active)

Compound: O=C(NCc1ccccn1)[C@@H]1[C@@H](CO)[C@@H]2Cn3c(ccc(/C=C/c4ccccc4)c3=O)[C@H]1N2CC1CC1
- AC50 [18]: 7.58 µM (active)

Compound: Cc1ccccc1C(=O)Nc1nnc(-c2ccco2)s1
- EC50 [19]: > 79.4 µM (inactive)
- EC50 [20]: > 26.5 µM (not active)
- AC50 [15]: 8.18 µM (active)
- EC50 [21]: > 79.4 µM (not active)
- AC50 [17]: 4.84 µM (active)
